Experimental data from patent publication US20210230170A1, “KRAS G12C INHIBITORS” (Mirati Therapeutics, Inc., priority 2018, published 2021).

Each compound was assayed against T1, KRas G12C (Homo sapiens, UniProt P01116, G12C) (assay: Inhibition of KRas G12C in NCI-H358 cells measured by phosphorylated ERK (Phospho-ERK)). Conditions: pERK(Thr202/Tyr204) signal normalized with GAPDH, percent of DMSO control, 3 hours compound treatment.
T1 construct: NCI-H358 cells (ATCC CRL-5807) express KRas G12C; host or cells: NCI-H358
T1 sequence (P01116 1-188 isoform P01116-2 G12C): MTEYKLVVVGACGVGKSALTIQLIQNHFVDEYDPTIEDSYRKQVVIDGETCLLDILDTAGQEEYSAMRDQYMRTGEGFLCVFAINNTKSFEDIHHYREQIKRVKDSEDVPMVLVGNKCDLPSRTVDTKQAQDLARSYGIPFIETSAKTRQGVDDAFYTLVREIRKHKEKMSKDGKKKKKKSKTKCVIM
Assay type: cell-based
Protocol: The cellular inhibition of KRAs G12C by exemplary compounds of the present invention was determined by measuring the amount of a downstream marker of KRas activity, phosphorylated ERK (“Phospho-ERK”).
NCI-H358 cells (ATCC CRL-5807) express KRas G12C and were grown in RPMI medium supplemented with 10% fetal bovine serum, penicillin/streptomycin and 10 mM HEPES. Cells were plated in poly-D-Lysine coated 96-well plates at a concentration of 50,000 cells/well and allowed to attach for 8-12 hours. Diluted compounds were then added at a final concentration of 0.5% DMSO. After 3 hours, the medium was removed, 150 μL of 4% formaldehyde was added and the plates were incubated for 20 minutes. The plates were washed with PBS, and permeabilized using 150 μL of ice cold 100% methanol for 10 minutes. Non-specific antibody binding to the plates was blocked using 100 μL Licor Blocking Buffer (Li-Cor Biotechnology, Lincoln Nebr.) for 1 hour at room temperature. Positive control samples and samples lacking cells were parallel processed with test samples as standards.
The amount Phospho-ERK was determined using an antibody specific for the phosphorylated form of ERK and compared to the amount of GAPDH. Primary antibodies used for detection were added as follows: Phospho-ERK (Cell Signaling cs9101) diluted 1:500 and GAPDH (Millipore MAB374) diluted 1:5000 in Licor block+0.05% Tween 20. The plates were incubated for 2 hours at room temperature. The plates were washed with PBS+0.05% Tween 20.
Secondary antibodies used to visualize primary antibodies were added as follows: Anti-rabbit-680 diluted 1:1000 and Anti-mouse-800 diluted 1:1000 in Licor Block+0.05% Tween 20 and incubated for 1 hour at room temperature. The plates were washed with PBS+0.05% Tween 20. A 100 μL aliquot of PBS was added to each well and the plates were read on a LICOR AERIUS plate reader.
The pERK(Thr202/Tyr204) signal was normalized with the GAPDH signal and percent of DMSO control values were calculated. IC50 values were generated using a 4 parameter fit of the dose response curve. Key: “A”≤500 nM; “B”>500 nM and ND=not determined.
Work on `C=C(F)C(=O)N1CCN(c2ncnc3c2CCCN(c2cccc4cccc(C)c24)C3)C[C@@H]1CC#N` [Example 23, 2-[(2S)-1-(2-fluoroprop-2-enoyl)-4-[8-(8-methyl-1-naphthyl)-5,6,7,9-tetrahydropyrimido[4,5-c]azepin-4-yl]piperazin-2-yl]acetonitrile] yielded an IC50 of over 500 nM. For `C=CC(=O)N1CCN(c2ncnc3c2CCCN(c2cccc4cccc(C)c24)C3)C[C@@H]1CC#N` [Example 25, 2-[(2S)-4-[8-(8-methyl-1-naphthyl)-5,6,7,9-tetrahydropyrimido[4,5-c]azepin-4-yl]-1-prop-2-enoyl-piperazin-2-yl]acetonitrile], the IC50 was over 500 nM. `C=C(F)C(=O)N1CCN(c2nc(OC[C@@H]3CCCN3C)nc3c2CCCN(c2cccc4[nH]ncc24)C3)C[C@@H]1CC#N` [Example 26, 2-((S)-4-(8-(1H-indazol-4-yl)-2-(((S)-1-methylpyrrolidin-2-yl)methoxy)-6,7,8,9-tetrahydro-5H-pyrimido[4,5-c]azepin-4-yl)-1-(2-fluoroacryloyl)piperazin-2-yl)acetonitrile] gave an IC50 of over 500 nM.
